Measurements reported in patent publication US20230352136A1, “SYSTEMS AND METHODS TO EVALUATE DRUG-INDUCED GASTROINTESTINAL DYSRHYTHMIA” (The Chinese University of Hong Kong, priority 2022, published 2023).

Experiments:
[1] = test system: stomach pacemaker potentials; experiment: MEA recording of pacemaker potentials (slow waves), isolated stomach; assay type: cell-based, Suncus murinus
Method: (§1) Pacemaker potentials were recorded extracellularly on a 60-channel MEA system using full-thickness GI segments isolated from Suncus murinus. Basic slow-wave parameters, including frequency, amplitude, slope, period, and power partitions, were derived. Signal regularity was also evaluated using detrended fluctuation analysis and sample entropy analysis.
(§2) Electrical recordings were taken after the animals were euthanised by carbon dioxide asphyxiation. […] The mesentery was removed, and the lumen contents were flushed with Krebs' medium. Segments (−1 cm) of duodenum, ileum, and colon were then isolated, but the stomach was kept intact. All tissue segments and the entire stomach were incubated in Krebs' medium containing nifedipine (1 μM; Sigma Aldrich, St Louis, MO, USA) for 15 min to inhibit smooth muscle activity. Pacemaker potentials were recorded using an MEA platform (MEA1060 1200×; Multichannel Systems, Reutlingen, Germany) as previously described. Briefly, tissues were placed onto the electrode field of an MEA chip (60-channel, 8×8 configuration, 3D-tip-shaped electrodes with a height of […] and an inter-electrode distance of 200 μm; Ayanda Biosystems SA, Lausanne, Switzerland). Intestinal segments were aligned horizontally to the recording electrode field, while the stomach was oriented with the antrum facing the recording electrode field. The chamber temperature was maintained at 37° C. and the sampling frequency was 1 kHz. […] All data were recorded and saved using MC_Rack (v 4.6.2, Multichannel Systems).
(§3) Data analysis included basic slow-wave feature extraction using a custom automated program. […] The time point of drug administration was automatically identified based on the signal disturbance. The period of signal disturbance (20 s before and 40 s after the peak of the disturbance) was excluded from the analysis. Data were filtered using a passband between 0.1 Hz and 1 Hz and a stopband between 0.01 Hz and 2 Hz. The basic slow-wave features extracted were similar to those extracted in the inventors' previous studies. However, instead of using several templates and scripts written in Microsoft Excel and Spike 2, a one-step automatic and blinded MATLAB programme was used for data analysis. There were four major changes to the data analysis process as compared to the inventors' previous studies. First, auto-identification of the drug disturbance time point was used, rather than manual identification. Second, standardised signal filters were built in MATLAB to match the entire data analysis pipeline. […] Frequency partitioning was performed by segmenting the power spectrum of 0-50 cpm into the following four segments: brady-rhythm (within the range 2-[DF−1] cpm), normal-rhythm ([DF±1] cpm), tachy-rhythm (within the range [DF+1]-40 cpm), and out-of-range frequencies (<2 cpm and >40 cpm). Third, waveforms were identified using the MATLAB ‘findpeaks’ function, with a minimum peak height of […] at baseline and […] after drug treatment, with a step time of 5.4 s for the intestine and 12 s for the stomach. The average peak-to-peak amplitude, slope, and period were derived for all detected waveforms. Fourth, propagation velocity was derived using phase-difference measurements, based on the auto-select seed electrode with the highest percentage of normal rhythms.
(§4) Dominant activation pattern identification included a phase-based analysis performed as previously described (Liu et al., 2021). Briefly, high-frequency spikes with amplitudes greater than […] were masked. Continuous frequencies were identified using continuous wavelet transformation, and the transformed data were used to plot spectrograms. […] High quality data were subjected to Hilbert transformation to identify the phase and frequency of the signals. Individual activation times were clustered using k-means clustering every 20 s and major activation patterns were grouped using a structural similarity index.

[2] = test system: colon pacemaker potentials; experiment: MEA recording of pacemaker potentials (slow waves), isolated colon; assay type: cell-based, Suncus murinus; settings: colonic tissues
Method: as §1, §2, §3, §4

Structure (SMILES): Cl.NCCc1ccc(O)c(O)c1 [dopamine, 3-Hydroxytyramine hydrochloride]
- percentage of tachy-rhythms ([1]; 100 μM, baseline 36.1±12.8, p<0.05, n=8): 60.2±15.4%
- percentage of normal rhythms ([1]; 100 μM, baseline 55.1±7.2, p<0.01, n=8): 23.6±13.1%
- dominant power (DP) of slow waves ([1]; 100 μM, baseline 888.0±691.5, p<0.05, n=8): 253.2±416.1 μV^2
- percentage of dominant patterns (based on post-treatment data, FIG. 3E), change vs baseline ([1]; 100 μM, p>0.05, n=4): No significant differences
- percentage of dominant baseline activation patterns, change vs baseline ([1]; 100 μM, p>0.05, n=4, FIG. 3D): No significant differences
- average SampEn (larger scale 6-50), effect ([1]; 100 uM, p>0.05, n=7): did not change
- average SampEn (smaller scale 1-5), effect ([1]; 100 uM, p>0.05, n=7): did not change
- DFA fluctuation function (larger scale 26-46), effect ([1]; 100 μM, p>0.05, n=7): did not change
- amplitude of slow waves, change vs baseline ([1]; 100 μM, p>0.05, n=8): No significant differences
- dominant frequency (DF), change vs baseline ([1]; 100 μM, p>0.05, n=8): No significant differences
- propagation velocities, effect ([1]; 100 μM, p>0.05, n=8): did not affect
- slope of waveforms, change vs baseline ([1]; 100 μM, p>0.05, n=8): No significant differences
- waveform period, change vs baseline ([1]; 100 μM, p>0.05, n=8): No significant differences
- wave propagation in video (FIG. 11B), effect ([1]; 100 M): wave propagation was inhibited, and amplitudes were reduced
- average SampEn (larger scale 6-50) ([2]; 100 nM, baseline 0.33±0.06, p<0.01, n=6): 0.28±0.07
- average SampEn (smaller scale 1-5) ([2]; 100 nM, baseline 0.59±0.03, p<0.01, n=6): 0.62±0.03
- DFA fluctuation function (larger scale 26-46) ([2]; 100 nM, baseline 1.80±0.09, p<0.001, n=6): 1.58±0.11
- DFA fluctuation function (smaller scale 3-25) ([2]; 100 nM, baseline 2.37±0.07, p<0.01, n=6): 2.26±0.06
- average frequency (AF) ([2]; 100 nM, baseline 23.9±2.4, p<0.05, n=7): 23.3±1.6 cpm
- DFA fluctuation function (smaller scale 3-25) ([2]; 1 μM, baseline 2.30±0.33, p<0.05, n=8): 2.23±0.34
- number of groups of activation patterns ([2]; 1 μM, baseline 5.4±1.0, p<0.05, n=6): 6.4±1.1
- percentage of tachy-rhythms ([2]; 1 μM, baseline 18.3±12.6, p<0.05, n=6): 55.5±34.8%
- percentage of dominant patterns (based on post-treatment data, FIG. 3E), first pattern ([2]; 1 μM, baseline 19.1±12.2, p<0.05, n=6): 39.6±15.6%
- percentage of normal rhythms ([2]; 1 μM, baseline 41.4±9.7, p<0.01, n=6): 14.5±18.1%
- propagation direction and speed in video (FIGS. 12A-12B) ([2]; 10 μM): relatively constant
- representative spectrogram, effect ([2]; 10 μM): extra peaks appeared to the right of the original DF
- wave fronts counted in representative spatio-temporal map (1 min) ([2]; 10 μM, 32 before treatment): 32
- average SampEn (smaller scale 1-5) ([2]; 10 μM, baseline 0.57±0.06, p<0.05, n=6): 0.60±0.04
- DFA fluctuation function (smaller scale 3-25) ([2]; 10 μM, baseline 2.24±0.23, p<0.05, n=6): 2.11±0.27
- number of groups of activation patterns ([2]; 10 μM, baseline 6±0.7, p<0.05, n=9): 6.8±1.1
- percentage of normal rhythms ([2]; 10 μM, baseline 42.4±6.9, p<0.05, n=9): 13.1±17.4%
- DFA fluctuation function (larger scale 26-46) ([2]; 100 μM, baseline 1.63±0.19, p<0.05, n=10): 1.46±0.21
- DFA fluctuation function (smaller scale 3-25) ([2]; 100 μM, baseline 2.31±0.12): 2.19±0.13
- percentage of dominant patterns (based on post-treatment data, FIG. 3E), third pattern ([2]; 100 μM, baseline 20.3±10.8, p<0.0001, n=5): 7.5±5.8%
- percentage of dominant baseline activation patterns, first pattern ([2]; 100 μM, baseline 34.4±3.7, p<0.01, n=4): 11.4±12.9%
- percentage of brady-rhythms ([2]; 100 μM, baseline 34.7±9.1, p<0.05, n=6): 53.9±26.8%
- percentage of normal rhythms ([2]; 100 μM, baseline 53.1±8.1, p<0.05, n=6): 33.4±23.3%
- amplitude of slow waves ([2]; 100 μM, baseline 267.3±80.9, p<0.01, n=6): 199.7±48.8 μV
- slope of waveforms ([2]; 100 μM, baseline 439.3±124.3, p<0.001, n=6): 299.0±76.5 μV s^−1
- dominant frequency (DF), change vs baseline ([2]; 0.1-100 μM, p>0.05, n=6-9): No significant differences
- dominant power (DP), change vs baseline ([2]; 0.1-100 μM, p>0.05, n=6-9): No significant differences
- propagation velocities, effect ([2]; 0.1-100 μM, p>0.05, n=6-9): did not affect
- waveform period, change vs baseline ([2]; 0.1-100 μM, p>0.05, n=6-9): No significant differences
- average SampEn (smaller scale 1-5) ([2]; 1 M, baseline 0.57±0.06, p<0.01, n=8): 0.59±0.05
- DFA fluctuation function (larger scale 26-46) ([2]; 1 M, baseline 1.74±0.26, p<0.01, n=8): 1.61±0.29
- DFA fluctuation function (larger scale 26-46) ([2]; 10 M, baseline 1.73±0.16, p<0.05, n=6): 1.53±0.19
